Results as given in patent publication US12370197B2, “Combination product of a Bcl-2/Bcl-xL inhibitor and a chemotherapeutic agent and use thereof in the prevention and/or treatment of diseases” (ASCENTAGE PHARMA (SUZHOU) CO., LTD., priority 2019, dated 2025).
“And” between values parts separate entries of the source, which are not always exact repeats. Identical values can stand only once. “Also recorded” adds a separate entry of the source.

Assays:
[1] = test system: MV-4-11 AML xenograft; experiment: human MV-4-11 AML xenograft model in mice; type: in vivo, mouse; details: for mRECIST: MV-4-11 xenograft, animals with response / animals in group; for RTV (D22) (Mean ± SEM) / T/C (%) (D22): female BALB/c Nude mice, s.c. MV-4-11, Compound 6 or ABT-199 50 mg/kg oral once daily 21 days, HHT 1 mg/kg i.p. once daily 14 days, day 22
Method: Treatment was initiated on the day of grouping (Day 1). […] HHT was intraperitoneally administered once daily for consecutive 14 days. The tumor sizes (caliper) and animal body weights were measured twice a week.

[2] = test system: MV-4-11 cells; experiment: CellTiter-Glo luminometric cell viability assay (CTG), MV-4-11; type: cell-based, human
Method: (§1) In the antiproliferative tests, cells were plated in 96-well plates (Corning, Cat. 3903) at 10000 cells/well/cell line. In the apoptosis assay, cells were plated in 24-well plates (Corning, Cat. 3524) at 200000 cells/well/cell line.
(§2) For combination tests, the results were further analyzed using the CalcuSyn program to calculate a Combination Index (CI) (Chou, T. C. (2010) “Drug combination studies and their synergy quantification using the Chou-Talalay method.”, Cancer Res 70(2): 440-446). […]
(§3) The anti-proliferation effects of the test sample in three AML/MDS cell lines, namely MV-4-11 (Compound 6 sensitive cell line), OCI-AML-3 (Compound 6 non-sensitive cell line) and SKM-1 (Compound 6 non-sensitive cell line), were determined by quantifying ATP using CellTiter-Glo luminescence cell viability detection kits, according to the manufacturer's instructions.
(§4) First, cells in the logarithmic growth phase were collected, centrifuged, and the cell suspension was counted and diluted/adjusted to the desired concentration. […] More than 3 blank control wells containing only medium (100 μL/well) without cells were set on the same plate to obtain background luminescence, and cell control wells, i.e., wells containing cells but treated with vehicle control, were set. […]
(§5) Luminescence signals were detected using a Biotek synergy H1 microplate reader. […]

[3] = test system: OCI-AML-3 cells; experiment: CellTiter-Glo luminometric cell viability assay (CTG), OCI-AML-3; type: cell-based, human
Method: as §1, §2, §3, §4, §5

[4] = test system: SKM-1 cells; experiment: CellTiter-Glo luminometric cell viability assay (CTG), SKM-1; type: cell-based
Method: as §1, §2, §3, §4, §5

[5] = test system: OCI-AML-3 AML xenograft; experiment: human OCI-AML-3 AML xenograft model in mice; type: in vivo, mouse; details: female NOD SCID mice, s.c. OCI-AML-3; Compound 6 50 mg/kg oral once daily 14 days; HHT 0.75 mg/kg i.p. once daily 7 days from D2; day 15
Method: Treatment was initiated on the grouping day (D1). […] HHT was intraperitoneally injected once daily from D2 and continued for consecutive 7 days. The tumor sizes (caliper) and animal body weights were measured twice a week.

[6] = test system: OCI-AML-3 cells; experiment: Annexin V-PI apoptosis flow cytometry, OCI-AML-3; type: cell-based, human; details: 24 h, Compound 6 10 nM, HHT 30 nM, alone or combined
Method: as §1
[Experimental Methods]: Flow Cytometer Analysis
Cells were harvested after 24 hours of treatment with Compound 6 alone, HHT alone, or the combination of both, and washed once with phosphate buffered saline (PBS). Cells were stained with Annexin-V and PI and analyzed using an Attune NxT flow cytometer. Apoptosis profiles were obtained by analyzing 20000 cells per experimental condition.
Apoptosis was detected using Annexin V-PI (propidium iodide) staining kit according to the manufacturer's instructions. After treating the cells MV-4-11, OCI-AML-3 and SKM-1 with 10 nM Compound 6 alone, 10 nM or 30 nM HHT alone or the combination of both for 24 hours, the cells were harvested and washed once with PBS. Cells were bi-color stained with Annenix V-FITC and PI. After staining was complete, analysis was performed using an Attune NxT flow cytometer. Apoptosis profiles were obtained by analyzing 20000 cells per experimental condition.

[7] = test system: MCL-1; experiment: Western Blot assay, MCL-1; type: cell-based, human; details: MV-4-11, OCI-AML-3 and SKM-1 cells, 4 h; 10 nM Compound 6, 10 nM or 30 nM HHT
Method: [Experimental Methods]: Western Blot Assay
Western Blot assay was performed after 4 hours treatment of cells in logarithmic growth phase with Compound 6, HHT, either alone or in combination.
After 4 hours of interaction with 10 nM Compound 6 in combination with 10 nM or 30 nM HHT, cells were harvested and washed once with pre-cooled PBS. The cell pellets were lysed using RIPA lysate containing 1% PMSF and 1% protease inhibitor. The protein concentration was detected by using a BCA protein concentration detection kit. Cell lysates (20-50 μg) were separated by 4-20% SDS-PAGE. The separated proteins were transferred to PVDF membranes which were blocked using 1% BSA (bovine serum albumin) buffer at room temperature for 1 hours before incubated in a shaker at 4° C. overnight with primary antibody diluted in 1×TBST (Tris-Buffered Saline Tween-20) containing 1% BSA. The membranes were washed 3 times with 1×TBST each for 10 minutes, and then were incubated for 1 hour at room temperature using horseradish peroxidase (HRP)-tagged secondary antibodies (goat anti-rabbit-HRP (Yeasen, Cat. #33101ES60) and goat anti-mouse-HRP (Yeasen, Cat. #33201ES60), diluted according to the manufacturer's instructions). The membranes were washed 3 times with 1×TBST each for 10 minutes. HRP substrate was added onto the PVDF membrane. […]

Structure (SMILES): CC1(C)CCC(CN2CCN(c3ccc(C(=O)NS(=O)(=O)c4ccc(NCC5CCOCC5)c([N+](=O)[O-])c4)c(Oc4cnc5[nH]ccc5c4)c3)CC2)=C(c2ccc(Cl)cc2)C1 [ABT-199]
- mRECIST [1]: no CR or PR and 6/6 PD
- RTV (D22) (Mean ± SEM) [1]: 11.77 ± 1.94
- T/C (%) (D22) [1]: 88.27%

Structure (SMILES): O=C(NS(=O)(=O)c1ccc(NC[C@H]2COCCO2)c([N+](=O)[O-])c1)c1ccc(N2CCN(CC3=C(c4ccc(Cl)cc4)CC4(CCC4)CC3)CC2)cc1Oc1cnc2[nH]ccc2c1 [Compound 6, (S)-N-((4-(((1,4-dioxan-2-yl)methyl)amino)-3-nitrophenyl)sulfonyl)-2-((1H-pyrrolo[2,3-b]pyridin-5-yl)oxy)-4-(4-((6-(4-chlorophenyl)spiro[3.5]non-6-en-7-yl)methyl)piperazin-1-yl)benzamide]
- sensitivity of the cell line to Compound 6 [2]: sensitive; also recorded: moderate sensitivity
- mRECIST [1]: no CR or PR and 6/6 PD
- RTV (D22) (Mean ± SEM) [1]: 8.36 ± 0.76
- T/C (%) (D22) [1]: 62.76%
- sensitivity of the cell line to Compound 6 [3]: non-sensitive
- sensitivity of the cell line to Compound 6 [4]: non-sensitive
- RTV(D15) (Mean ± SEM) [5]: 12.77 ± 1.51
- T/C (%) (D15) [5]: 61.36%
- apoptosis (Annexin V+ cells) [6]: 12.1%

Structure (SMILES): COC(=O)C[C@](O)(CCCC(C)(C)O)C(=O)O[C@@H]1C(OC)=C[C@]23CCCN2CCc2cc4c(cc2[C@H]13)OCO4 [HHT, homoharringtonine]
- mRECIST [1]: 3/5 SD and 3/5 SD, 2/5 PD
- RTV (D22) (Mean ± SEM) [1]: 4.32 ± 1.42
- T/C (%) (D22) [1]: 32.43%
- RTV(D15) (Mean ± SEM) [5]: 13.89 ± 0.82
- T/C (%) (D15) [5]: 66.77%
- apoptosis (Annexin V+ cells) [6]: 25.0%
- expression level of anti-apoptosis protein MCL-1 [7]: reduce the expression level
